The values below come from US20230416275A1, “MODULATORS OF CYSTIC FIBROSIS TRANSMEMBRANE CONDUCTANCE REGULATOR” (VERTEX PHARMACEUTICALS INCORPORATED, priority 2020, published 2023).

The target in one assay is T1, F508del in NIH 3T3 cells (Homo sapiens, UniProt P13569, DEL508-508).
T1 construct: expressed in transfected cells
Nature of the assay: 3T3 assay: membrane potential optical assay for F508del correction. It counts as cell-based, mouse. To be noted: for EC50 / 3T3 Max Activity (%): F508del NIH 3T3 cells; for EC50: compound incubation 18-24 hours at 37° C., forskolin activation, read-out: 3T3 EC50; for Emax: NIH3T3, F508del NIH 3T3 cells, read-out: 3T3 Max Activity (%); for Emax / 3T3 Max Activity (%): efficacy compared to lumacaftor in combination with acutely added 300 nM Ivacaftor. In outline:
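NIH3T3 mouse fibroblasts stably expressing F508del incubated with corrector compounds at a range of concentrations for 16-24 h at 37 °C, then loaded with voltage-sensing redistribution dye. Single addition of forskolin with Cl− gradient (chloride-free gluconate bath vs. NaCl bath, pH 7.4); membrane potential change read by fluorescence on FLIPR.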

In assay [1] the target is CFTR-mediated chloride transport in human intestinal epithelial enteroid cells (Homo sapiens, UniProt P13569). Nature of the assay: Membrane potential dye, Enteroid Assay A. It counts as cell-based. To be noted: for Ent. A Max Activity (%): % of chloride transport of triple combination control (3 μM N-[(6-amino-2-pyridyl)sulfonyl]-6-(3-fluoro-5-isobutoxy-phenyl)-2-[(4S)-2,2,4-trimethylpyrrolidin-1-yl]pyridine-3-carboxamide, 3 μM tezacaftor, 300 nM acute ivacaftor); for EC50: enteroid cells, 18-24 hours incubation, acute 10 μM forskolin and 300 nM ivacaftor, read-out: Ent. A EC50. In outline: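 Enteroids seeded at 5000 cells/well were exposed to test compound in IEMM for 18-24 h at 37 °C, then loaded with methyl oxonol membrane potential dye. Chloride transport was triggered in chloride-free buffer with 10 μM forskolin, 100 μM IBMX and 300 nM Compound III, read by fluorescence for 15 min and expressed as % of a triple-combination control.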
Sequence of CFTR-mediated chloride transport in human intestinal epithelial enteroid cells (P13569 with tags, fused parts or gaps DEL508-508): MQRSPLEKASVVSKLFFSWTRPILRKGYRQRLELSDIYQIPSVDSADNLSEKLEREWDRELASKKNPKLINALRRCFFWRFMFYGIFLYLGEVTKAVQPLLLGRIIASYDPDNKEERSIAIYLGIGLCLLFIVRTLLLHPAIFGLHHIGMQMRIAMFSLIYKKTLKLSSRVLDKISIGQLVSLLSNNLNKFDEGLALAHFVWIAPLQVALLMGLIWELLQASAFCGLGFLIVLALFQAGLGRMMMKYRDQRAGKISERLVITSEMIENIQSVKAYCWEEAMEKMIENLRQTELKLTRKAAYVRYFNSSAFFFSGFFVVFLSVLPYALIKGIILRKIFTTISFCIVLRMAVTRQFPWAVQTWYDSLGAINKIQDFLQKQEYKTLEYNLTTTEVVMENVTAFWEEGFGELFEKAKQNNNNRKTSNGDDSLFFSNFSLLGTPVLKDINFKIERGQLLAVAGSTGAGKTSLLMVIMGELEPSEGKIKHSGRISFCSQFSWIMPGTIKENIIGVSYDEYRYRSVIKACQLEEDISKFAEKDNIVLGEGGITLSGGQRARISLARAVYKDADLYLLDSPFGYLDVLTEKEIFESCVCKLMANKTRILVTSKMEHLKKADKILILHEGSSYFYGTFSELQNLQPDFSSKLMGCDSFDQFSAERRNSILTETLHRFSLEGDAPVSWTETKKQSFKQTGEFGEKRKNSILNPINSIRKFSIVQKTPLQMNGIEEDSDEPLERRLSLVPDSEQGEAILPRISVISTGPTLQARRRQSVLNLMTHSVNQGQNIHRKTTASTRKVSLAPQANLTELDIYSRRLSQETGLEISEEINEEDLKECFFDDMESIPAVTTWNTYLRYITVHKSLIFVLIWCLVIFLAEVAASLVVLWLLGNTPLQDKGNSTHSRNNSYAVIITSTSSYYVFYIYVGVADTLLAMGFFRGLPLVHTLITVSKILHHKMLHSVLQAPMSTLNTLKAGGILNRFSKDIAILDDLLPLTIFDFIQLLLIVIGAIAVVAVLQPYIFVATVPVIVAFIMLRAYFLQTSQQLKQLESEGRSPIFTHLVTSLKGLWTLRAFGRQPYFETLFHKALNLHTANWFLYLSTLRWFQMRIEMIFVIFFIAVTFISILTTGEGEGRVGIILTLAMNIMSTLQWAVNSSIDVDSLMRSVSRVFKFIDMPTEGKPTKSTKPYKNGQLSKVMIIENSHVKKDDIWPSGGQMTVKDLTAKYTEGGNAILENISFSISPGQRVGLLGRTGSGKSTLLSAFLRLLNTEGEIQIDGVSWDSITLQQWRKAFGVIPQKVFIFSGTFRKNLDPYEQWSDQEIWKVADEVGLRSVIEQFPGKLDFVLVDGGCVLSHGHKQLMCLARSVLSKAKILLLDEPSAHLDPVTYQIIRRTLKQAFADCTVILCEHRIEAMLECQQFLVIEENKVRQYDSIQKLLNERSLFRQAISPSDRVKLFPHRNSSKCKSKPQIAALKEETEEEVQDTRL

T1 sequence (P13569 with tags, fused parts or gaps DEL508-508): as above

Regarding `O=C1Nc2cccc(c2)S(=O)(=O)Nc2nc(cc(-c3cccc4ccccc34)n2)Oc2cccc1c2` [Compound 58, 5-(1-Naphthyl)-9,9-dioxo-2-oxa-9λ^6-thia-6,8,15,23-tetraazatetracyclo[15.3.1.13,7.110,14]tricosa-1(20),3,5,7(23),10(22),11,13,17(21),18-nonaen-16-one], on F508del in NIH 3T3 cells, the EC50 (in general, the concentration needed to bring the measured effect to its halfway point) is less than 1 µM and the Emax was greater than 60%. In assay [1], the “Ent. A Max Activity (%)” value is listed as “++ (++ is 30-60%)” and the EC50 fell in the range of 1 to 3 µM.

With `Cc1cccc(C)c1-c1cc2nc(n1)NS(=O)(=O)c1cccc(c1)NC(=O)[C@H]1C[C@H](CN(CCC(C)(C)C)C1)O2` [Compound 11, (3R,7S)-5-(3,3-Dimethylbutyl)-19-(2,6-dimethylphenyl)-2-oxa-15λ^6-thia-5,9,16,18,21-pentaazatetracyclo[15.3.1.13,7.110,14]tricosa-1(21),10(22),11,13,17,19-hexaene-8,15,15-trione], at F508del in NIH 3T3 cells, the EC50 is less than 1 µM and the Emax was greater than 60%. Moreover, in assay [1], the “Ent. A Max Activity (%)” value is “+ (+ is <30%)”.

Turning to `Cc1cccc(C)c1-c1cc2nc(n1)NS(=O)(=O)c1cccc(c1)NC(=O)[C@H]1C[C@H](CN(C(=O)OC(C)(C)C)C1)O2` (single isomer, unassigned) [Compound 1], on F508del in NIH 3T3 cells, the EC50 is less than 1 µM and the Emax lay in the range of 30 to 60%. In addition, in assay [1], the “Ent. A Max Activity (%)” value is reported as “+ (+ is <30%)”.

Regarding `Cc1cccc(C)c1-c1cc2nc(n1)NS(=O)(=O)c1cccc(c1)NC(=O)C1CC(CN(C(=O)OC(C)(C)C)C1)O2` (centres unmarked) [Compound 124], on F508del in NIH 3T3 cells, the EC50 lay within 1 to 3 µM and the “3T3 Max Activity (%)” value is “+++ (+++ is >60%)”. Besides, in assay [1], the “Ent. A Max Activity (%)” value is “++ (++ is 30-60%)” and the EC50 was in the range of 3 to 30 µM.

As to `Cc1cccc(C)c1-c1cc2nc(n1)NS(=O)(=O)c1cccc(c1)NC(=O)Cc1cccc(c1)O2` [Compound 109], on F508del in NIH 3T3 cells, the EC50 was in the range of 1 to 3 µM and the Emax is greater than 60%. Further, in assay [1], the “Ent. A Max Activity (%)” value was “++ (++ is 30-60%)” and the EC50 was 3 to 30 µM.

On to `Cc1cccc(C)c1-c1cc2nc(n1)NS(=O)(=O)c1cccc(c1)NC(=O)[C@@H]1C[C@H](CN(C(=O)OC(C)(C)C)C1)O2` (single isomer, unassigned) [Compound 3], for which, at F508del in NIH 3T3 cells, the 50% effective concentration (EC50) fell in the range of 1 to 3 µM and the Emax was greater than 60%. In assay [1], the “Ent. A Max Activity (%)” value is recorded as “+ (+ is <30%)” and the EC50 lay within 1 to 3 µM.

As to `Cc1cccc(C)c1-c1cc2nc(n1)NS(=O)(=O)c1cccc(c1)NC(=O)c1cccc(c1)O2` [Compound 53, 5-(2,6-Dimethylphenyl)-9,9-dioxo-2-oxa-9λ^6-thia-6,8,15,23-tetraazatetracyclo[15.3.1.13,7.110,14]tricosa-1(20),3,5,7(23),10(22),11,13,17(21),18-nonaen-16-one], at F508del in NIH 3T3 cells, the EC50 is less than 1 µM and the Emax is greater than 60%. In addition, in assay [1], the “Ent. A Max Activity (%)” value was “+++ (+++ is >60%)” and the EC50 lay within 3 to 30 µM.

Take `Cc1cccc(C)c1-c1cc2nc(n1)NS(=O)(=O)c1cccc(c1)NC(=O)[C@H]1C[C@@H](CN(CCC(C)(C)C)C1)O2` [Compound 12, (3S,7S)-5-(3,3-Dimethylbutyl)-19-(2,6-dimethylphenyl)-2-oxa-15λ^6-thia-5,9,16,18,21-pentaazatetracyclo[15.3.1.13,7.110,14]tricosa-1(21),10(22),11,13,17,19-hexaene-8,15,15-trione]: on F508del in NIH 3T3 cells, the EC50 was less than 1 µM and the Emax was greater than 60%. In addition, in assay [1], the “Ent. A Max Activity (%)” value is “++ (++ is 30-60%)” and the EC50 lay in the range of 1 to 3 µM.

For the compound `Cc1cccc(C)c1-c1cc2nc(n1)NS(=O)(=O)c1cccc(c1)NC(=O)[C@H]1CCC[C@H](C1)O2` (single isomer, unassigned) [Compound 68, 5-(2,6-dimethylphenyl)-9,9-dioxo-2-oxa-9λ^6-thia-6,8,15,23-tetraazatetracyclo[15.3.1.13,7.110,14]tricosa-3,5,7(23),10(22),11,13-hexaen-16-one], on F508del in NIH 3T3 cells, the EC50 was less than 1 µM and the Emax is greater than 60%. In assay [1], the “Ent. A Max Activity (%)” value is listed as “++ (++ is 30-60%)” and the EC50 fell in the range of 3 to 30 µM.

For the compound `Cc1ccc2cc1C(=O)Nc1cccc(c1)S(=O)(=O)Nc1nc(cc(-c3c(C)cccc3C)n1)O2` [Compound 111], at F508del in NIH 3T3 cells, the EC50 was less than 1 µM and the Emax is greater than 60%. For the same compound, in assay [1], the “Ent. A Max Activity (%)” value is listed as “++ (++ is 30-60%)” and the EC50 is 3 to 30 µM.

As for `Cc1cccc(C)c1-c1cc2nc(n1)NS(=O)(=O)c1cccc(c1)NC(=O)CCc1cccc(c1)O2` [Compound 108], at F508del in NIH 3T3 cells, the EC50 was less than 1 µM and the Emax is greater than 60%. For the same compound, in assay [1], the “Ent. A Max Activity (%)” value is reported as “+++ (+++ is >60%)” and the EC50 is 3 to 30 µM.

On to `Cc1cccc(C)c1-c1cc2nc(n1)NS(=O)(=O)c1cccc(c1)NC(=O)[C@@H]1C[C@@H](CN(C(=O)C(C)(C)C)C1)O2` [Compound 46], for which, on F508del in NIH 3T3 cells, the EC50 was less than 1 µM and the Emax is greater than 60%. Besides, in assay [1], the “Ent. A Max Activity (%)” value is listed as “+++ (+++ is >60%)” and the EC50 fell in the range of 1 to 3 µM.

In the case of `Cc1cccc(C)c1-c1cc2nc(n1)NS(=O)(=O)c1cccc(c1)NC(=O)[C@@H]1C[C@@H](CN(CC(C3CC3)C3CC3)C1)O2` [Compound 24], on F508del in NIH 3T3 cells, the EC50 is less than 1 µM and the Emax is greater than 60%. For the same compound, in assay [1], the “Ent. A Max Activity (%)” value is on record as “++ (++ is 30-60%)” and the EC50 was less than 1 µM.

For the compound `Cc1cccc(C)c1-c1cc2nc(n1)NS(=O)(=O)c1cccc(c1)NC(=O)[C@H]1C[C@H](CN(C(=O)NC(C)(C)C)C1)O2` [Compound 43], at F508del in NIH 3T3 cells, the EC50 lay in the range of 3 to 30 µM and the Emax is greater than 60%. Further, in assay [1], the “Ent. A Max Activity (%)” value was “+ (+ is <30%)”.

Take `Cc1cccc(C)c1-c1cc2nc(n1)NS(=O)(=O)c1cccc(c1)NC(=O)[C@@H]1C[C@@H](CN(CC34CC(C3)C4)C1)O2` [Compound 25]: at F508del in NIH 3T3 cells, the EC50 is less than 1 µM and the Emax was greater than 60%. Further, in assay [1], the “Ent. A Max Activity (%)” value is “++ (++ is 30-60%)” and the EC50 is less than 1 µM.

Regarding `Cc1cccc(C)c1-c1cc2nc(n1)NS(=O)(=O)c1cccc(c1)NC(=O)[C@H]1CCC[C@H](C1)O2` (single isomer, unassigned) [Compound 71, 5-(2,6-dimethylphenyl)-9,9-dioxo-2-oxa-9λ^6-thia-6,8,15,23-tetraazatetracyclo[15.3.1.13,7.110,14]tricosa-3,5,7(23),10(22),11,13-hexaen-16-one], on F508del in NIH 3T3 cells, the EC50 lay within 1 to 3 µM and the “3T3 Max Activity (%)” value is listed as “+++ (+++ is >60%)”. For the same compound, in assay [1], the “Ent. A Max Activity (%)” value is “+++ (+++ is >60%)” and the EC50 is 1 to 3 µM.

Turning to `Cc1cccc(C)c1-c1cc2nc(n1)NS(=O)(=O)c1cccc(c1)NC(=O)C1CC(CN(C(=O)OC(C)(C)C)C1)O2` (centres unmarked) [Compound 123], on F508del in NIH 3T3 cells, the EC50 is less than 1 µM and the Emax was greater than 60%. Also, in assay [1], the “Ent. A Max Activity (%)” value is reported as “++ (++ is 30-60%)” and the EC50 is less than 1 µM.

For `Cc1cccc(C)c1-c1cc2nc(n1)NS(=O)(=O)c1cccc(c1)NC(=O)[C@H]1C[C@@H](CN(C(=O)NC(C)(C)C)C1)O2` [Compound 42], at F508del in NIH 3T3 cells, the EC50 lay in the range of 3 to 30 µM and the Emax is greater than 60%. The “Ent. A Max Activity (%)” value in assay [1] was “+ (+ is <30%)”.
